Earlier results as cited in patent US6576633B1, “Stable liquid antimicrobial suspension compositions containing quarternaries prepared from hexamethylenetetramine and certain halohydrocarbons” (The Dow Chemical Company, priority 1996, dated 2003).

Details: conventional 30 percent aqueous solution; within one month

For `ClC=CC[N+]12CN3CN(CN(C3)C1)C2.[Cl-]` (mixture of isomers) [cis/trans-compound, 1-(3-chloroallyl)-3,5,7-triaza-1-azoniaadamantane chloride], the chemical degradation is given as ~30%.
In the case of `ClC=CC[N+]12CN3CN(CN(C3)C1)C2.[Cl-]` [cis-compound, 1-(3-chloroallyl)-3,5,7-triaza-1-azoniaadamantane chloride], the chemical degradation is given as ~30%.
